In publication PMC9553116 (The Journal of Pharmacology and Experimental Therapeutics, 2022):

Target: T1, MFN2 (FRET-MFN2) (Homo sapiens, UniProt O95140)
T1 sequence (O95140 1-757): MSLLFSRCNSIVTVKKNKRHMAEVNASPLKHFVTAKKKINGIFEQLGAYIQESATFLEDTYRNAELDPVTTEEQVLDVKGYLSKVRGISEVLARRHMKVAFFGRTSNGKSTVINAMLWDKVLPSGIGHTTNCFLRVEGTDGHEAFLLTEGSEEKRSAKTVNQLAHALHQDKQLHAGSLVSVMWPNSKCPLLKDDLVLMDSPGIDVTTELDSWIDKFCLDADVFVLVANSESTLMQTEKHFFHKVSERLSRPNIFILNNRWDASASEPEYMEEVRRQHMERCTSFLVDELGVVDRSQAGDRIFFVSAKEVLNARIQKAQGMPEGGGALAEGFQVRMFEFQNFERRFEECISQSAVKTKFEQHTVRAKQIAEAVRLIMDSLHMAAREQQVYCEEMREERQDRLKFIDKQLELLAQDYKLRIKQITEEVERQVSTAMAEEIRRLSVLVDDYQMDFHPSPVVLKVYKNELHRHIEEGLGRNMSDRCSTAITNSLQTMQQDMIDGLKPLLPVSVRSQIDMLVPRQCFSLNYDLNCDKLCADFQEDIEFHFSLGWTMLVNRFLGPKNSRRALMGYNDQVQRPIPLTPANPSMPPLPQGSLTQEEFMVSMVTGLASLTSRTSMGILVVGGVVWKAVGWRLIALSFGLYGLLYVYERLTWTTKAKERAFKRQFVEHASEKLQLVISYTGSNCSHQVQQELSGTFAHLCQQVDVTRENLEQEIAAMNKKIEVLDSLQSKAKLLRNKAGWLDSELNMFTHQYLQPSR
Assay: Cerulean/Venus FRET of MFN2 conformation, isolated mitochondria
Type: biochemical
Details: 1 uM compound, 4 h, room temperature, pH 7.4; allosteric

O=C(CCCCCc1ccccc1)N[C@H]1CC[C@H](O)CC1 [trans-MiM111, N-(trans-4-Hydroxycyclohexyl)-6-phenylhexanamide]
FRET: trans-MiM111 and CPR1-B promoted a relaxed WT MFN2 conformation
